Experimental data from patent publication US7504384B2 (priority 2000, dated 2009).
Read-outs that look alike come from different tables or passages of the source.

Assays:
[1] = tested on: HIV-1IIIB; experiment: Inhibition of p24 production (HIV-1IIIB infection of MT-2 cells); type: cell-based; settings: fourth day, p24 ELISA
Protocol: Experiment 1.2: Inhibition of HIV-1IIIB Infection
After 1 h, half of the culture medium was changed and replaced by fresh medium (with/without Lipid-conjugate) and after 24 h, the second half of the culture medium was changed and replaced by fresh medium (with/without Lipid-conjugate). On the fourth day after incubation at 37° C., 100 μl of culture supernatants were collected from each well and an equal volume of fresh medium was added to the wells. The collected supernatants were mixed with an equal volume of 5% (v/v) Triton X-100 and assayed for p24 antigen using an ELISA kit from Coulter Immunology (Hialeah, Fla.).

[2] = tested on: HIV-1IIIB-infected H9 cells and uninfected MT-2 cells; experiment: Inhibition of fusion between HIV-infected and uninfected cells; type: cell-based; settings: for IC50 (mean ± SD), inhibition of fusion / IC90 (mean ± SD), inhibition of fusion: H9/HIV-1 IIIB + MT-2 cells, 2 h; for IC50 / IC90: Table 1.4
Protocol: In this assay, HIV-1IIIB-infected H9 cells were labeled with BCECF (2′,7′-bis(2-carboxyethyl)-5-6-carboxyfluorescein-acetoxymethyl-ester, Molecular Probes, Eugene, Oreg.) according to the manufacturer's instructions. BCECF-labeled H9/HIV-1 IIIB cells (10^4) were mixed with 1×10^5 uninfected MT-2 cells. After incubation in a 96-well plate at 37° C. for 2 h, the fused and unfused labeled cells were counted under an inverted fluorescence microscope at ×160 magnification. At least 200 BCECF-labeled cells were counted and the proportion of fused cells was determined Fusion tests were carried out in the presence and absence of graded quantities of the tested Lipid-conjugates. […] The IC50 represents the concentration of a drug that is required to achieve 50% inhibition. Similarly, the IC90 represents the concentration of a drug that is required to achieve 90% inhibition.

[3] = biological target: V3 (third variable) domain of the HIV-1 envelope glycoprotein gp120; experiment: V3 antibody binding (ELISA); set-up: species or system human immunodeficiency virus type 1 (HIV-1); settings: standard ELISA
Protocol: V3 antibody binding is an assay that uses an antibody that binds to the V3 (third variable) domain of the human immunodeficiency virus type 1 (HIV-1) envelope glycoprotein gp120. Anti-V3 domain antibodies may provide an indicator of the presence and amount of HIV. V3 antibody binding was determined by standard ELISA.

[4] = tested on: vaccinia virus (WR strain); type: cell-based; settings: 48 hr
[5] = tested on: Human RBC; experiment: Prevention of hemolysis of human red blood cells; type: cell-based; settings: 20 min, 10 μM Lipid-conjugate, None = 1.000
Protocol: Hemolysis, the breakdown of red blood cells (RBC), may be either a primary disease in itself, or a syndrome associated with another disease or physiological insult. In order to determine the effect of Lipid-conjugates on hemolysis, red blood cells were incubated in the presence of known membrane destabilizing agents and the release of hemoglobulin into the extracellular medium was detected.
Human RBC were washed in saline and suspended in Hanks buffer (pH 7.4). Hemolysis was induced in the absence or presence of 10 μM Lipid-conjugates by treatment with either 5 U/ml streptolysin O (SLO), 25 U/ml streptolysin S (SLS), or 5 μg/ml lysophosphatidylcholine (lyso-PC) for 20 min. The cell membranes were spun and the hemoglobin content in the supernatant was determined by measuring the O.D. at 540 nm (Table 5.1).

[6] = tested on: Influenza A (H1N1 strain) virus; type: cell-based, Influenza type A, A/New Caledonia/20/99 (H1N1); settings: high concentration; Visual Observation Assay; Influenza A (H1N1 strain)
[7] = tested on: Influenza A (H1N1 strain) virus; type: cell-based, Influenza type A, A/New Caledonia/20/99 (H1N1); settings: high concentration, Neutral Red Uptake Assay
[8] = tested on: Influenza A (H3N2 strain) virus; type: cell-based, Influenza type A, A/Panama/2007/99 (H3N2)
[9] = tested on: Influenza A (H3N2 strain) virus; type: cell-based, Influenza type A, A/Panama/2007/99 (H3N2); settings: high concentration, Neutral Red Uptake Assay
[10] = tested on: Guinea pig tracheal rings; experiment: Inhibition of tracheal ring contraction; settings: Lipid-conjugate 10 μM
Protocol: A muscle preparation (tracheal rings) was isolated from rats (Experiments 3.1-3.3) and from guinea pigs (Experiments 3.4-3.5). Muscle contraction was measured by attachment of the muscle to a pressure transducer, which works much like a spring. Administration of asthmatogenic substances such as endothelin-1 (ET) and acetylcholine (AcCh) induces muscle contraction. Endothelins are released upon vascular endothelial injury, and they activate macrophages and act as strong chemo-attractants for circulating monocytes. Endothelins affect vascular smooth muscle fibroblast proliferation; help regulate vascular, airway, and intestinal smooth muscle tone; increase the activity of bone alkaline phosphatase; stimulate release of atrial natriuretic peptide (ANP) from atrial cardiocytes; inhibit the release of renin from glomeruli and modulate norepinephrine at sympathetic nerve termini. Opposing vasomotor effects are regulated through the binding of distinct endothelin receptors for vasoconstriction and vasodilation. Endothelins have been linked to atherosclerosis and various cardiovascular disease states. ET-1 is important in congestive heart failure, renal failure, pulmonary hypertension, hyperlipidemia and metastatic prostate cancer. On the other hand, AcCh is one of the three main receptors on the bronchi of the lungs, which are basically tubes with muscular walls. Stimulation of bronchial AcCh receptor induces muscle contraction and decreased airflow through the bronchi. Thus, ET and AcCh were used to experimentally induce muscle contraction in the lungs as a model of obstructive respiratory disorders.
Experiment 3.4: Guinea pig tracheal rings (in a linear array), immersed in a ringer bath, were connected to an apparatus measuring the length of the ring chain. […] Human airways have both Histamine (H)-1 and H2 receptors. H1 receptors, which mediate bronchoconstriction, predominate. Histamine application in experimental models produces signs and symptoms of asthma, such as narrowing of the airways, mucus secretion, wheezing, and coughing.

[11] = tested on: PGE2 and TXB2 production by guinea pig tracheal rings; experiment: Tracheal tissue PGE2 and TXB2 production (radioimmunoassay); settings: Histamine (40 μM) + Compound XXVI (10 μM); histamine alone 5.6
Protocol: Experiment 3.5: Guinea pig tracheal rings were incubated with or without Compound XXVI for 30 minutes prior to stimulation. The medium was collected after 30 minutes, and PGE2 and TXB2 levels were determined by radioimmunoassay (Table 3.2). PGE2 and TXB2 are metabolites of arachidonic acid produced during inflammatory response.

[12] = tested on: mice; experiment: Acute (7 day) toxicity test; type: in vivo; settings: mice, one week after a single i.p. dose of 1000, 500 or 200 mg/kg; versus untreated mice
Protocol: […] Mortality rate, body weight, blood count (red and white cells), hematocrit, and internal organ histology after sacrifice were assessed. These parameters were compared in Lipid-conjugate-treated and in control, untreated mice.

[13] = tested on: Punta Toro virus; type: cell-based, strain Adames
[14] = tested on: Punta Toro virus; type: cell-based, strain Adames; remark: listed apart in the source
[15] = tested on: Respiratory syncytial virus; type: cell-based, strain A2; settings: lower range of doses, at the concentrations tested
[16] = tested on: Influenza B virus; type: cell-based, Influenza type B, B/Hong Kong/330/02; settings: lower range of doses, at the concentrations tested
[17] = lower range of doses, at the concentrations tested

dimyristoyl-phosphatidyl-ethanolamine linked to HA [Compound XXIII]
IC50 [1]: 1770 nM | IC50 (mean ± SD), inhibition of p24 production [1]: 118.0 ± 16.8 µg/mL | IC90 [1]: 4440 nM | IC90 (mean ± SD), inhibition of p24 production [1]: 296.3 ± 104.0 µg/mL | IC50 (mean ± SD), inhibition of fusion [2]: 122.8 ± 14.8 µg/mL | IC90 (mean ± SD), inhibition of fusion [2]: 219.8 ± 10.6 µg/mL | IC50 [2]: 1830 nM | IC90 [2]: 3300 nM | IC50 [3]: 3000 nM | % inhibition [4]: 99.9% | Virus titer [4]: 7.7 × 10^4 PFU/culture

hyaluronic acid [HA, reference compound]
HEMOLYSIS (O.D. AT 540 nm), Lyso-PC ([5]; 5 μg/ml lysophosphatidylcholine): 1.875 O.D. | HEMOLYSIS (O.D. AT 540 nm), SLO ([5]; 5 U/ml streptolysin O): 1.000 O.D. | HEMOLYSIS (O.D. AT 540 nm), SLS ([5]; 25 U/ml streptolysin S): 1.000 O.D.

PE conjugated to Polygeline (haemaccel) [Compound XXVII]
IC50 (mean ± SD), inhibition of p24 production [1]: 375.8 ± 119.5 µg/mL | IC90 (mean ± SD), inhibition of p24 production [1]: >500 µg/mL | IC50 (mean ± SD), inhibition of fusion [2]: >500 µg/mL | IC90 (mean ± SD), inhibition of fusion [2]: >500 µg/mL

NC(=O)c1ncn([C@@H]2O[C@H](CO)[C@@H](O)[C@H]2O)n1 [Ribavirin, reference compound]
SI (IC50/EC50) [6]: 22 | SI (IC50/EC50) [7]: 25 | SI (IC50/EC50) ([8]; high concentration, Visual Observation Assay, Influenza A (H3N2 strain)): 56 | SI (IC50/EC50) [9]: 36

PE conjugated to CMC [Compound XXVI]
% Inhibition of tracheal ring contraction ([10]; stimulant Endothelin-1 (100 nM)): 92 ± 1.1% | % Inhibition of tracheal ring contraction ([10]; stimulant Histamine (20 μM)): 69 ± 0.1% | % Inhibition of tracheal ring contraction ([10]; stimulant Phospholipase (0.5 μ/ml) (crotalus atrox type II)): 100 ± 0.3% | TXB2 [11]: 1.75 ng/mL | toxicity: mortality rate, body weight, blood count, hematocrit, internal organ histology [12]: did not alter the parameters

dipalmitoyl-phosphatidyl-ethanolamine (PE) conjugated to chondroitin-sulfate A [Compound XXV]
IC50 [1]: 1450 nM | IC50 (mean ± SD), inhibition of p24 production [1]: 72.5 ± 8.0 µg/mL | IC90 [1]: 2120 nM | IC90 (mean ± SD), inhibition of p24 production [1]: 106.0 ± 10.3 µg/mL | IC50 (mean ± SD), inhibition of fusion [2]: >500 µg/mL | IC90 (mean ± SD), inhibition of fusion [2]: >500 µg/mL | IC50 [2]: > 10000 nM | IC90 [2]: > 10000 nM | IC50 [3]: 200 nM | SI (IC50/EC50) [13]: 0 | EC50 ([13]; low concentrations, Visual Observation Assay, Punta Toro A): >100 µg/mL | virus inhibitory effect against Punta Toro virus [13, 17]: did not display a virus inhibitory effect | SI (IC50/EC50) [14]: 0 | EC50 ([14]; low concentrations, Neutral Red Uptake Assay, Punta Toro A): >100 µg/mL | virus inhibitory effect against RSV [15]: did not demonstrate a virus inhibitory effect | virus inhibitory effect against influenza A (H3N2 strain) [8, 17]: did not demonstrate a virus inhibitory effect | virus inhibitory effect against influenza B [16]: did not demonstrate a virus inhibitory effect | % inhibition [4]: 62.8% | Virus titer [4]: 3.2 × 10^7 PFU/culture | toxicity: mortality rate, body weight, blood count, hematocrit, internal organ histology [12]: induced hemorrhage
